Our source for the IC50 values is ChEMBL document CHEMBL1944573, “New bisabolane sesquiterpenoids from a marine-derived fungus Aspergillus sp. isolated from the sponge Xestospongia testudinaria” (Bioorg Med Chem Lett, 2012).

In brackets after ≈: the same amount, converted by molar mass.

In one assay the test system is HepG2. Kind of assay: Cytotoxicity against human HepG2 cells by MTT assay. The class given is functional, cell-based. A general note: Tetrazolium dyes change colour on reduction, which living cells bring about.
The subject of a further assay is Ca-Ski. Kind of assay: Cytotoxicity against human CaSki cells by MTT assay. The class given is functional, cell-based.

Regarding `CC(C)CCC[C@](C)(O)c1ccc(COc2cc(CO)ccc2[C@@](C)(O)CCCC(C)C)cc1O` [DISYDONOL A], the figures for the IC50 with HepG2 and in the assay with Ca-Ski were 9.31 µg/mL (≈ 19.1 µM) and 12.4 µg/mL (≈ 25.5 µM), respectively.
On the same counts, the results for `CC(C)CCC[C@](C)(O)c1ccc(CO)cc1Oc1cc(CO)ccc1[C@](C)(O)CCCC(C)C` [DISYDONOL B] are more than 100 µg/mL and more than 100 µg/mL.
On the same counts, the results for `CC(C)CCC[C@](C)(O)c1ccc(Cc2cc([C@@](C)(O)CCCC(C)C)c(O)cc2CO)cc1O` [DISYDONOL C] are 2.91 µg/mL (≈ 5.98 µM) and 10.2 µg/mL (≈ 21 µM).
